Patent US20060069132A1, “Azolecarboxamide herbicides” (priority 2004, published 2006)

How the values were obtained:
wheat = test: Test C postemergence herbicide test; type: in vivo, Triticum aestivum
In short: (§1)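 After a postemergence application at 1 to 4 leaves (plants 2–18 cm high), or at 2 leaves for barnyardgrass in flooded paddy, plants stayed in the greenhouse for 12 to 14 days. Damage was then judged visually relative to control plants, with 100 indicating complete control.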

blackgrass = test: Test C postemergence herbicide test; type: in vivo, Alopecurus myosuroides
In short: as §1

[1] = Postemergence, 250 g ai/ha, scale 0 to 100, 0 no effect, 100 complete control
[2] = postemergence, 125 g ai/ha, scale 0 to 100
[3] = postemergence, 62 g ai/ha, scale 0 to 100
[4] = postemergence, 31 g ai/ha, scale 0 to 100
[5] = Postemergence, 500 g ai/ha, scale 0 to 100, 0 no effect, 100 complete control
[6] = Postemergence, 500 g ai/ha, scale 0 to 100

SMILES	Plant response rating, Wheat (wheat; [1])	Plant response rating, Wheat (wheat; [2])	Plant response rating, Wheat (wheat; [3])	Plant response rating, Blackgrass (blackgrass; [1])	Plant response rating, Blackgrass (blackgrass; [2])	Plant response rating, Blackgrass (blackgrass; [4])	Plant response rating, Blackgrass (blackgrass; [3])	Plant response rating, Wheat (wheat; [5])	Blackgrass plant response rating (blackgrass; [6])	Blackgrass plant response rating (blackgrass; Postemergence, 250 g ai/ha, scale 0 to 100)	Wheat plant response rating (wheat; [6])
CCOC(=O)c1cccc(NC(=O)c2cc(C3(C)CC3)nn2CC)c1 [Compound 295]	45	45	45	65	65	45	45				
CCn1nc(C(C)(C)C)cc1C(=O)Nc1cc(OC(F)(F)F)ccc1F [Compound 338]	35	25	25	50	45		40	45	65		
CCn1nc(C(C)(C)C)cc1C(=O)Nc1cccc(C(=O)NCC2CC2)c1 [Compound 62]	10	10	10		40	20	40			40	
CCCCOc1cccc(NC(=O)c2cc(C(C)(C)C)nn2CC)c1 [Compound 137]	30	30	30	40	40		40		60		40
CCn1nc(C2(C)CC2)cc1C(=O)Nc1cc(C(=O)N2CC=CC2)ccc1F [Compound 301]	55	45	40	90	75		55		45		40
CCn1nc(C(C)(C)C)cc1C(=O)Nc1cccc(OS(=O)(=O)CC)c1 [Compound 408]		30	30	65	50		40	40	70		
